Measured values: patent publication US7985415B2, “Medical devices employing novel polymers” (Rutgers, The State University of New Jersey, priority 1997, dated 2011)

Test system: coronary arteries
Assay: Swine stent model: coated stents implanted in coronary arteries, light microscopy and morphometry
Settings: for Stenosis (%): (Neointimal Area/IEL Area)x100; for EEL Area / IEL Area / Intimal Area / Intimal Thick. / Lumen Area: PolySAID II coating alone or with 20% added drug by weight
Excerpt: A total of 8 stents were implanted in the coronary arteries of 3 miniswine for 28 days. The stent implants were Polymerix [nicknamed MARGI] 15 mm in length with an unexpanded diameter of 1.6 mm.
All stents were processed for light microscopic evaluation. Before processing, the vessels and hearts were x-rayed to locate and assess stent placement. For processing, the stented vessel segments were dehydrated in a graded series of ethanol and embedded in methylmethacrylate plastic. After polymerization, two to three millimeter sections were sawed from the proximal, mid and distal portions of each stent. Sections from the stents were cut on a rotary microtome at four to five microns, mounted and stained with hematoxylin and eosin and elastic Van Gieson stains. All sections were examined by light microscopy for the presence of inflammation, thrombus, neointimal formation, vessel wall injury and potential localized toxic effects associated with drug-coated stents.
Myocardial sections were taken from the anterior, lateral, posterior and septal walls of the left ventricle distal to the stent and from the apical region of the left ventricle. To determine localized affects of the polymer and/or drug, the myocardium was also sampled beneath the area of stent placement. All sections were cut at 4-6 microns; mounted and stained with hematoxylin and eosin and examined for the presence of infarct, thromboembolus and inflammation.
A vessel injury score was calculated according to the Schwartz method. The cross-sectional areas (external elastic lamina [EEL], internal elastic lamina [IEL] and lumen) of each section were measured with digital morphometry. Neointimal thickness was measured as the distance from the inner surface of each stent strut to the luminal border. Percent area stenosis was calculated with the formula [(Neointimal Area/IEL Area)×100]. Ordinal data was also collected for fibrin deposition and inflammation and hemorrhage around the stent struts and percent endothelialization of the lumen surfaces. Values are expressed as mean±SD. Mean variables were compared between the groups with the use of ANOVA with Fishers Post Hoc Correction for analysis of the data. A value of P≦0.05 was considered statistically significant.

[1] = miniswine coronary arteries, stents 28 days

| % Struts (Fibrin) (miniswine, in vivo, 28 days) [%] | % Struts Hemorrhage (miniswine, in vivo, 28 days) [%] | Ave Inflammation score (miniswine, in vivo, 28 days) | Compound | % Struts (Fibrin) [1] [%] | % Struts Hemorrhage [1] [%] | % Struts with underlying medial necrosis [1] [%] | Ave Inflammation score [1] | light microscopy findings (vessel healing, neointima) [1] | Stenosis (%) [1] [%] | EEL Area [1] [mm2] | IEL Area [1] [mm2] | Intimal Area [1] | Intimal Thick. [1] [mm] | Lumen Area [1] [mm2] | Injury Score (miniswine coronary arteries, stents 28 days, Schwartz method) | light microscopy findings (vessel healing, neointima) (in vivo) | % Struts with underlying medial necrosis (miniswine, in vivo, 28 days) [%] | Injury Score (miniswine, in vivo, 28 days) |
| --- | --- | --- | --- | --- | --- | --- | --- | --- | --- | --- | --- | --- | --- | --- | --- | --- | --- | --- |
| – | – | – | CC(=O)O[C@H]1C(=O)[C@@]2(C)[C@H]([C@H](OC(=O)c3ccccc3)[C@]3(O)C[C@H](OC(=O)[C@H](O)[C@@H](NC(=O)c4ccccc4)c4ccccc4)C(C)=C1C3(C)C)[C@]1(OC(C)=O)CO[C@@H]1C[C@@H]2O [Paclitaxel, paclitaxel] | 100 | 100 | 8.67 ± 3.51 | 2.0 | malapposition with underlying medial necrosis with extensive accumulation of fibrin, hemorrhage, and inflammatory cells around the stent struts | 27.21 ± 17.11 | 8.41 ± 2.95 | 6.84 ± 2.56 | 2.14 ± 2.10 mm2 | 0.05 ± 0.01 | 4.70 ± 0.64 | 0.35 ± 0.48 | – | – | – |
| 57.78 ± 43.47 | 28.33 ± 30.14 | 2.3 ± 0.58 | CO[C@H]1C[C@@H]2CC[C@@H](C)[C@@](O)(O2)C(=O)C(=O)N2CCCC[C@H]2C(=O)O[C@H]([C@H](C)C[C@@H]2CC[C@@H](O)[C@H](OC)C2)CC(=O)[C@H](C)/C=C(\C)[C@@H](O)[C@@H](OC)C(=O)[C@H](C)C[C@H](C)/C=C/C=C/C=C/1C [Sirolimus, sirolimus] | – | – | – | – | – | 20.31 ± 10.1 | 6.07 ± 0.61 | 4.78 ± 0.39 | 0.96 ± .50 mm2 | 0.10 ± 0.05 | 3.81 ± 0.62 | – | less neointimal growth and were more healed than those coated with paclitaxel | 0.68 ± 0.68 | 0.45 ± 0.69 |
